Values of other authors, collected in US12138347B2, “Nanoparticles and nanonetworks formed therefrom” (University of Houston System, priority 2018, dated 2024).

Assays:
[1] = system: HL60 leukemia cells; settings: p53 null cell line
[2] = system: K562 leukemia cells; settings: p53 null cell line
[3] = system: HT-29 colon carcinoma cells; settings: p53 null cell line
[4] = system: prostate cancer cells

## C[C@H]1CCC/C=C/[C@@H]2C[C@H](O)C[C@H]2[C@H](O)/C=C/C(=O)O1 [BFA, Brefeldin A]
[1]
  potency in HL60 leukemia cells: high potency
[2]
  potency in K562 leukemia cells: high potency
[3]
  potency in HT-29 colon carcinoma cells: high potency
[4]
  effect on efficacy of docetaxel: enhances the efficacy
